Here are results for 7 compounds from patent US5185320A, “O^56 -alkyl derivatives of aglycone and pseudo aglycones of teicoplanin” (Gruppo Lepetit S.p.A., priority 1989, dated 1993).

Some results are limits rather than exact numbers.

Common to all, as to type: cell-based
Holding throughout (conditions): inoculum about 10^4 CFU/ml, 18-24 h at 37° C.

In assay [1] the test system is Neisseria gonorrhoeae ISM68/126. As to the kind of experiment: MIC, standard dilution test, Neisseria gonorrhoeae ISM68/126. The protocol: (§1) ISOSENSITEST broth (Oxoid) and TOLLD-HEWITT broth (Difco) are used for growing staphylococci and streptococci, respectively. Broth cultures are diluted so that the final inoculum is about 10^4 colony forming units/ml (CFU/ml).

A further assay concerns Strep. mitis L 796. Put plainly: MIC, standard dilution test, Strep. mitis L 796. The protocol: as §1
Another assay deals with Staph. aureus Tour L 165. Put plainly: MIC, standard dilution test, Staph. aureus Tour L 165. The procedure:
as §1

Assay [2] concerns Proteus vulgaris ATCC 881. Put plainly: MIC, standard dilution test, Proteus vulgaris ATCC 881. The procedure:
as §1

For assay [3], the system named is Pseudomonas aeruginosa ATCC 10145. As to the kind of experiment: MIC, standard dilution test, Pseudomonas aeruginosa ATCC 10145. The procedure: as §1
For assay [4], the system named is Staph. haemolyticus L 602. Put plainly: MIC, standard dilution test, Staph. haemolyticus L 602. The protocol: as §1
Assay [5] has as its system Strep. faecalis ATCC 7080. Put plainly: MIC, standard dilution test, Strep. faecalis ATCC 7080. The protocol: as §1
For assay [6], the system named is Haemophilus influenzae ATCC 19418. As to the kind of experiment: MIC, standard dilution test, Haemophilus influenzae ATCC 19418. The protocol:
as §1

For a further assay, the system named is Strep. pyogenes C 203. Put plainly: MIC, standard dilution test, Strep. pyogenes C 203. The procedure: as §1
Assay [7] has as its system Staph. epidermidis ATCC 12228. Put plainly: MIC, standard dilution test, Staph. epidermidis ATCC 12228. The protocol:
as §1

For assay [8], the system named is Escherichia coli SKF 12140. As to the kind of experiment: MIC, standard dilution test, Escherichia coli SKF 12140. The procedure:
as §1

For another assay, the system named is Strep. pneumoniae UC41. Put plainly: MIC, standard dilution test, Strep. pneumoniae UC41. The procedure:
as §1

Take `COC(=O)C1NC(=O)C2NC(=O)C(NC(=O)C3NC(=O)C4NC(=O)C(Cc5ccc(c(Cl)c5)Oc5cc3cc(c5OCCN3CCCC3)Oc3ccc(cc3Cl)C2O)NC(=O)C(N)c2ccc(O)c(c2)Oc2cc(O)cc4c2)c2ccc(O)c(c2)-c2c(O)cc(O)cc21.Cl.Cl` (stereo not drawn) [Compound 13, O^56-[2-(1-pyrrolidinyl)ethyl]deglucoteicoplanin methyl ester dihydrochloride]: the “Minimal inhibitory concentration (MIC)” value in [1] was found to be 32; in the assay on Strep. mitis L 796, 0.125; in the assay on Staph. aureus Tour L 165, 0.125; in assay [2] it was 128; in [3], 64; in [4], 0.5. Further, the “Minimal inhibitory concentration (MIC)” value was determined as 0.125 in assay [5]; 64 in assay [6]; 0.125 in the assay on Strep. pyogenes C 203; 0.25 in assay [7]; 8 in [8]; 0.25 in the assay on Strep. pneumoniae UC41.
Turning to `COC(=O)C1NC(=O)C2NC(=O)C(NC(=O)C3NC(=O)C4NC(=O)C(Cc5ccc(c(Cl)c5)Oc5cc3cc(c5OCCN3CCOCC3)Oc3ccc(cc3Cl)C2O)NC(=O)C(N)c2ccc(O)c(c2)Oc2cc(O)cc4c2)c2ccc(O)c(c2)-c2c(O)cc(O)cc21.Cl.Cl` (stereo not drawn) [Compound 14, O^56-[2-(1-morpholinyl)ethyl]deglucoteicoplanin methyl ester dihydrochloride], the “Minimal inhibitory concentration (MIC)” value is given as 64 in assay [1]; 0.125 in the assay with Strep. mitis L 796; 0.25 with Staph. aureus Tour L 165; more than 128 in assay [2]; more than 128 in assay [3]; 2 in [4]. Further, the “Minimal inhibitory concentration (MIC)” value is given as 0.125 in [5]; 64 in assay [6]; 0.25 in the assay on Strep. pyogenes C 203; 0.125 in assay [7]; 32 in assay [8]; 0.125 in the assay with Strep. pneumoniae UC41.
Consider `NCCNCCOc1c2cc3cc1Oc1ccc(cc1Cl)C(O)C1NC(=O)C(NC(=O)C3NC(=O)C3NC(=O)C(Cc4ccc(c(Cl)c4)O2)NC(=O)C(N)c2ccc(O)c(c2)Oc2cc(O)cc3c2)c2ccc(O)c(c2)-c2c(O)cc(O)cc2C(C(=O)NCCN)NC1=O` (stereo not drawn) [Compound 15, O^56-[2-(1-ethylendiaminyl)ethyl]deglucoteicoplanin ethylenediamine amide], for which the “Minimal inhibitory concentration (MIC)” value in [1] was 64; in the assay with Strep. mitis L 796, 0.25; in the assay on Staph. aureus Tour L 165, 0.125; in assay [2], 64; in [3], 64; in [4], 0.25. Further, the “Minimal inhibitory concentration (MIC)” value was found to be 0.25 in assay [5]; 128 in assay [6]; 0.063 in the assay with Strep. pyogenes C 203; 0.125 in assay [7]; 8 in assay [8]; 0.125 in the assay on Strep. pneumoniae UC41.
For `NC1C(=O)NC2Cc3ccc(c(Cl)c3)Oc3cc4cc(c3OC3CCOC3=O)Oc3ccc(cc3Cl)C(O)C3NC(=O)C(NC(=O)C4NC(=O)C(NC2=O)c2cc(O)cc(c2)Oc2cc1ccc2O)c1ccc(O)c(c1)-c1c(O)cc(O)cc1C(C(=O)O)NC3=O` (stereo not drawn) [Compound 16, O^56-(tetrahydro-2-oxo-3-furanyl)deglucoteicoplanin], the “Minimal inhibitory concentration (MIC)” value in [1] is given as 64; with Strep. mitis L 796, 0.5; in the assay on Staph. aureus Tour L 165, 0.125; in [2] it was more than 128; in assay [3], more than 128; in [4], 4. The “Minimal inhibitory concentration (MIC)” value in assay [5] was 0.5; in assay [6] it was more than 128; in the assay on Strep. pyogenes C 203, 0.5; in assay [7], 0.25; in assay [8] it was more than 128; with Strep. pneumoniae UC41, 0.25.
For `Cl.NC1C(=O)NC2Cc3ccc(c(Cl)c3)Oc3cc4cc(c3OCCBr)Oc3ccc(cc3Cl)C(O)C3NC(=O)C(NC(=O)C4NC(=O)C(NC2=O)c2cc(O)cc(c2)Oc2cc1ccc2O)c1ccc(O)c(c1)-c1c(O)cc(O)cc1C(C(=O)OCCBr)NC3=O` (stereo not drawn) [Compound 17, O^56-(2-bromoethyl)deglucoteicoplanin 2-bromoethyl ester hydrochloride salt], the “Minimal inhibitory concentration (MIC)” value in assay [1] was more than 128; with Strep. mitis L 796 it was 0.25; with Staph. aureus Tour L 165, 0.25; in assay [2], more than 128; in [3] it was more than 128; in assay [4], 4. The “Minimal inhibitory concentration (MIC)” value in assay [5] is reported as 0.125; in assay [6] it was more than 128; with Strep. pyogenes C 203, 0.125; in assay [7], 0.125; in [8], more than 128; with Strep. pneumoniae UC41, 0.5.
For the compound `NC1C(=O)NC2Cc3ccc(c(Cl)c3)Oc3cc4cc(c3OCc3ccccc3)Oc3ccc(cc3Cl)C(O)C3NC(=O)C(NC(=O)C4NC(=O)C(NC2=O)c2cc(O)cc(c2)Oc2cc1ccc2O)c1ccc(O)c(c1)-c1c(O)cc(O)cc1C(C(=O)OCc1ccccc1)NC3=O` (stereo not drawn) [Compound 20, O^56 -phenylmethyldeglucoteicoplanin phenylmethyl ester], the “Minimal inhibitory concentration (MIC)” value in assay [1] is given as more than 128; with Strep. mitis L 796 it was 0.125; in the assay with Staph. aureus Tour L 165, 0.5; in assay [2], more than 128; in assay [3], more than 128; in assay [4], 4. The “Minimal inhibitory concentration (MIC)” value in assay [5] is reported as 0.5; in assay [6], more than 128; in the assay with Strep. pyogenes C 203, 0.125; in [7], 0.25; in assay [8], more than 128; with Strep. pneumoniae UC41, 0.25.
`NC1C(=O)NC2Cc3ccc(c(Cl)c3)Oc3cc4cc(c3OC3CCOC3=O)Oc3ccc(cc3Cl)C(O)C3NC(=O)C(NC(=O)C4NC(=O)C(NC2=O)c2cc(O)cc(c2)Oc2cc1ccc2O)c1ccc(O)c(c1)-c1c(O)cc(O)cc1C(C(=O)OCc1ccccc1)NC3=O` (stereo not drawn) [Compound 21, O^56-(tetrahydro-2-oxo-3-furanyl)deglucoteicoplanin phenylmethyl ester]: the “Minimal inhibitory concentration (MIC)” value in assay [1] is more than 128; in the assay on Strep. mitis L 796, 0.25; in the assay on Staph. aureus Tour L 165, 2; in [2], more than 128; in [3], more than 128; in [4], 4. Moreover, the “Minimal inhibitory concentration (MIC)” value was 2 in assay [5]; more than 128 in [6]; 0.125 in the assay on Strep. pyogenes C 203; 1 in assay [7]; more than 128 in assay [8]; 0.25 in the assay with Strep. pneumoniae UC41.
